These results are taken from patent US20230212164A1, “ANNULATED 2-AMINO-3-CYANO THIOPHENES AND DERIVATIVES FOR THE TREATMENT OF CANCER” (BOEHRINGER INGELHEIM INTERNATIONAL GMBH, priority 2020, published 2023).

T1 sequence (P01116 1-169 isoform P01116-2 G12C/C51S/C80L/C118S): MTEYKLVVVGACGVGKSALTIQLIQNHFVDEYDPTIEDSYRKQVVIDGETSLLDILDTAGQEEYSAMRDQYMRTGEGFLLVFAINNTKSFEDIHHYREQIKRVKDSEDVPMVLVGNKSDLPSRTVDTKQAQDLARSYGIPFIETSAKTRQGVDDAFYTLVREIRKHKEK
KRASG12-dependent Ba/F3 cells, sequence (P01116 whole entry G12C): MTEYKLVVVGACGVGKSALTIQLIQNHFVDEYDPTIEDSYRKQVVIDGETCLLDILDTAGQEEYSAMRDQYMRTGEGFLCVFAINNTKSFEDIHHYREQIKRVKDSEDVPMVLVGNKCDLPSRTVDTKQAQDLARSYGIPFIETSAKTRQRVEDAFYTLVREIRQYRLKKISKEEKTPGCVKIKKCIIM

The first assay addresses T1, protein-protein interaction between SOS1 and KRAS G12C (Homo sapiens, UniProt P01116, C118S/C51S/C80L/G12C).
T1 construct: His6 (N)
In words: KRAS::SOS1 AlphaScreen binding assay. Particulars: Table 36.
As for `C=CC(=O)N1CCC(Oc2cc(-c3noc(C4(C)CCCc5sc(N)c(C#N)c54)n3)nc(N3CCC4(CCN(C)CC4)CC3)c2)CC1` (stereo not drawn) [Ia-78], the IC50 was determined as 155 nM.

In the case of `C=CC(=O)N1CCN(c2cc(-c3noc([C@@]4(C)CCCc5sc(N)c(C#N)c54)n3)nc(OC3CCC4CCN(C)C43)n2)CC1` (stereo partly drawn) [Ia-48], the IC50 was found to be 8 nM.

In turn, `C=CC(=O)N1CCN(c2cc(-c3noc([C@@]4(C)CCCc5sc(N)c(C#N)c54)n3)nc(OC3C4CC5CN(C)C3C5C4)n2)CC1` (stereo partly drawn) [Ia-50] showed an IC50 of 11 nM.

In turn, `C=CC(=O)N1CCN(c2nc(O[C@@H](C)[C@@H]3CCCN3C)nc(-c3noc([C@@]4(C)CCCc5sc(N)c(C#N)c54)n3)n2)CC1` [Ia-139] yielded an IC50 of 1.5 nM.

Take `C=CC(=O)N1CCN(c2cc(-c3noc([C@@]4(C)CCCc5sc(N)c(C#N)c54)n3)nc(O[C@@H](C)[C@@H]3CCCN3C)n2)C[C@H]1C` [Ia-63]: the IC50 was determined as 2.6 nM.

On to `C=CC(=O)N1CCN(c2cc(O[C@@H](C)[C@@H]3CCCN3C)nc(-c3noc([C@@]4(C)CCCc5sc(N)c(C#N)c54)n3)c2)CC12CCC2` [Ia-83], for which the IC50 was 2 nM.

`C=CC(=O)N1CCN(c2cc(-c3noc([C@@]4(C)CCCc5sc(N)c(C#N)c54)n3)nc(O[C@@H](C)[C@@H]3CCCN3C)n2)C2CCCC21` (stereo partly drawn) [Ia-60] displayed an IC50 of 1.7 nM.

Consider `C=CC(=O)N1CCC(Oc2cc(-c3noc([C@@]4(C)CCCc5sc(N)c(C#N)c54)n3)nc(N3CCN(C)C[C@@H]3C)c2)CC1` [Ia-79], for which the IC50 was found to be 4 nM.

Turning to `C=CC(=O)N1CCN(c2cc(-c3noc([C@@]4(C)CCCc5sc(N)c(C#N)c54)n3)nc(O[C@@H](C)[C@@H]3CCCN3C3CCN(C)CC3)n2)CC1` [Ia-135], the IC50 worked out at 2 nM.

In turn, `C=CC(=O)N1CCN(c2cc(-c3noc([C@@]4(C)CCCc5sc(N)c(C#N)c54)n3)nc(O[C@@H](C)[C@@H]3CCCN3C)n2)C(C)C1C` (stereo partly drawn) [Ia-53] gave an IC50 of 1.8 nM.

`C=CC(=O)N1C2CCC1CN(c1cc(-c3noc([C@@]4(C)CCCc5sc(N)c(C#N)c54)n3)nc(O[C@@H](C)[C@@H]3CCCN3C)n1)C2` [Ia-59] had an IC50 of 3 nM.

As to `C=CC(=O)N1CCN(c2cc(-c3noc([C@@]4(C)CCCc5sc(N)c(C#N)c54)n3)nc(OC[C@@H]3C[C@@H]4C[C@@H]4N3C)n2)CC1` [Ia-71], the IC50 stood at 3 nM.

The next assay concerns the target KRASG12-dependent Ba/F3 cells (Homo sapiens, UniProt P01116, G12C, cells depend on it). In words: Ba/F3 cell model proliferation assay (AlamarBlue, 72 h). Type of assay: cell-based. The conditions noted are these: Ba/F3 cells transduced with KRASG12C, read-out: IC50 Ba/F3 KRASG12C.
In the case of `C=CC(=O)N1CCC(Oc2cc(-c3noc(C4(C)CCCc5sc(N)c(C#N)c54)n3)nc(N3CCC4(CCN(C)CC4)CC3)c2)CC1` (stereo not drawn) [Ia-78], the GI50 came to 702 nM.

As for `C=CC(=O)N1CCN(c2cc(-c3noc([C@@]4(C)CCCc5sc(N)c(C#N)c54)n3)nc(OC3CCC4CCN(C)C43)n2)CC1` (stereo partly drawn) [Ia-48], the GI50 stood at 97.6 nM.

`C=CC(=O)N1CCN(c2cc(-c3noc([C@@]4(C)CCCc5sc(N)c(C#N)c54)n3)nc(OC3C4CC5CN(C)C3C5C4)n2)CC1` (stereo partly drawn) [Ia-50]: the GI50 was 496 nM.

With `C=CC(=O)N1CCN(c2nc(O[C@@H](C)[C@@H]3CCCN3C)nc(-c3noc([C@@]4(C)CCCc5sc(N)c(C#N)c54)n3)n2)CC1` [Ia-139], the GI50 is 2.1 nM.

With `C=CC(=O)N1CCN(c2cc(-c3noc([C@@]4(C)CCCc5sc(N)c(C#N)c54)n3)nc(O[C@@H](C)[C@@H]3CCCN3C)n2)C[C@H]1C` [Ia-63], the GI50 came to 15 nM.

Turning to `C=CC(=O)N1CCN(c2cc(O[C@@H](C)[C@@H]3CCCN3C)nc(-c3noc([C@@]4(C)CCCc5sc(N)c(C#N)c54)n3)c2)CC12CCC2` [Ia-83], the GI50 turned out to be 7.4 nM.

Turning to `C=CC(=O)N1CCN(c2cc(-c3noc([C@@]4(C)CCCc5sc(N)c(C#N)c54)n3)nc(O[C@@H](C)[C@@H]3CCCN3C)n2)C2CCCC21` (stereo partly drawn) [Ia-60], the GI50 came out at 5.9 nM.

Turning to `C=CC(=O)N1CCC(Oc2cc(-c3noc([C@@]4(C)CCCc5sc(N)c(C#N)c54)n3)nc(N3CCN(C)C[C@@H]3C)c2)CC1` [Ia-79], the GI50 came to 7.7 nM.

As to `C=CC(=O)N1CCN(c2cc(-c3noc([C@@]4(C)CCCc5sc(N)c(C#N)c54)n3)nc(O[C@@H](C)[C@@H]3CCCN3C3CCN(C)CC3)n2)CC1` [Ia-135], the GI50 was determined as 25.4 nM.

In the case of `C=CC(=O)N1CCN(c2cc(-c3noc([C@@]4(C)CCCc5sc(N)c(C#N)c54)n3)nc(O[C@@H](C)[C@@H]3CCCN3C)n2)C(C)C1C` (stereo partly drawn) [Ia-53], the GI50 turned out to be 4.3 nM.

For the compound `C=CC(=O)N1C2CCC1CN(c1cc(-c3noc([C@@]4(C)CCCc5sc(N)c(C#N)c54)n3)nc(O[C@@H](C)[C@@H]3CCCN3C)n1)C2` [Ia-59], the GI50 is 32.5 nM.

As for `C=CC(=O)N1CCN(c2cc(-c3noc([C@@]4(C)CCCc5sc(N)c(C#N)c54)n3)nc(OC[C@@H]3C[C@@H]4C[C@@H]4N3C)n2)CC1` [Ia-71], the GI50 turned out to be 23.7 nM.

The next assay deals with pERK (Thr202/Tyr204) in NCI-H358_Cas9_SOS2 (SOS2 knocked). As to the kind of experiment: ERK phosphorylation assay 2 (AlphaLISA SureFire Ultra p-ERK1/2). Particulars: read-out: IC50 H358 pERK, ERK phosphorylation assay 2 (values marked with *).
`C=CC(=O)N1CCC(Oc2cc(-c3noc(C4(C)CCCc5sc(N)c(C#N)c54)n3)nc(N3CCC4(CCN(C)CC4)CC3)c2)CC1` (stereo not drawn) [Ia-78]: the IC50 was 458 nM.

Consider `C=CC(=O)N1CCN(c2cc(-c3noc([C@@]4(C)CCCc5sc(N)c(C#N)c54)n3)nc(OC3CCC4CCN(C)C43)n2)CC1` (stereo partly drawn) [Ia-48], for which the IC50 turned out to be 21.3 nM.

`C=CC(=O)N1CCN(c2cc(-c3noc([C@@]4(C)CCCc5sc(N)c(C#N)c54)n3)nc(OC3C4CC5CN(C)C3C5C4)n2)CC1` (stereo partly drawn) [Ia-50]: the IC50 was 121 nM.

For the compound `C=CC(=O)N1CCN(c2nc(O[C@@H](C)[C@@H]3CCCN3C)nc(-c3noc([C@@]4(C)CCCc5sc(N)c(C#N)c54)n3)n2)CC1` [Ia-139], the IC50 is 1.4 nM.

Regarding `C=CC(=O)N1CCN(c2cc(-c3noc([C@@]4(C)CCCc5sc(N)c(C#N)c54)n3)nc(O[C@@H](C)[C@@H]3CCCN3C)n2)C[C@H]1C` [Ia-63], the IC50 came to 10.9 nM.

For `C=CC(=O)N1CCN(c2cc(O[C@@H](C)[C@@H]3CCCN3C)nc(-c3noc([C@@]4(C)CCCc5sc(N)c(C#N)c54)n3)c2)CC12CCC2` [Ia-83], the 50% inhibitory concentration (IC50) worked out at 10.2 nM.

For the compound `C=CC(=O)N1CCN(c2cc(-c3noc([C@@]4(C)CCCc5sc(N)c(C#N)c54)n3)nc(O[C@@H](C)[C@@H]3CCCN3C)n2)C2CCCC21` (stereo partly drawn) [Ia-60], the IC50 stood at 2.8 nM.

On to `C=CC(=O)N1CCC(Oc2cc(-c3noc([C@@]4(C)CCCc5sc(N)c(C#N)c54)n3)nc(N3CCN(C)C[C@@H]3C)c2)CC1` [Ia-79], for which the IC50 stood at 18.7 nM.

`C=CC(=O)N1CCN(c2cc(-c3noc([C@@]4(C)CCCc5sc(N)c(C#N)c54)n3)nc(O[C@@H](C)[C@@H]3CCCN3C3CCN(C)CC3)n2)CC1` [Ia-135]: the IC50 was determined as 9.6 nM.

In the case of `C=CC(=O)N1CCN(c2cc(-c3noc([C@@]4(C)CCCc5sc(N)c(C#N)c54)n3)nc(O[C@@H](C)[C@@H]3CCCN3C)n2)C(C)C1C` (stereo partly drawn) [Ia-53], the IC50 was 3.1 nM.

Consider `C=CC(=O)N1C2CCC1CN(c1cc(-c3noc([C@@]4(C)CCCc5sc(N)c(C#N)c54)n3)nc(O[C@@H](C)[C@@H]3CCCN3C)n1)C2` [Ia-59], for which the IC50 stood at 5.5 nM.

Regarding `C=CC(=O)N1CCN(c2cc(-c3noc([C@@]4(C)CCCc5sc(N)c(C#N)c54)n3)nc(OC[C@@H]3C[C@@H]4C[C@@H]4N3C)n2)CC1` [Ia-71], the IC50 came to 21.4 nM.
